Among the data in patent publication US20240150377A1, “MODULATORS OF CYSTIC FIBROSIS TRANSMEMBRANE CONDUCTANCE REGULATOR” (VERTEX PHARMACEUTICALS INCORPORATED, priority 2020, published 2024) are activation, EC50 and Emax values, retold here.

Molecules are shown by their SMILES. Read-outs that look alike come from different tables or passages of the source.

This assay addresses T1, CFTR (Homo sapiens, UniProt P13569, DEL508-508).
T1 construct: endogenous in cells; host or cells: primary human bronchial epithelial cells from CF subjects (F508del/MF-HBE), differentiated at air-liquid interface
Description: HBE assay: Ussing chamber assay of CFTR-mediated short-circuit currents. In kind it is cell-based. The method, then: 1. Ussing Chamber Assay of CFTR-Mediated Short-Circuit Currents
Ussing chamber experiments were performed using human bronchial epithelial (HBE) cells derived from CF subjects heterozygous for F508del and a minimal function CFTR mutation (F508del/MF-HBE) and cultured as previously described (Neuberger T, Burton B, Clark H, Van Goor F Methods Mol Biol 2011:741:39-54). After four days the apical media was removed, and the cells were grown at an air liquid interface for >14 days prior to use.
(§1) To isolate the CFTR-mediated short-circuit (ISC) current, F508del/MF-HBE grown on Costar® Snapwell™ cell culture inserts were mounted in an Ussing chamber and the transepithelial ISC was measured under voltage-clamp recording conditions (Vhold=0 mV) at 37° C. The basolateral solution contained (in mM) 145 NaCl, 0.83 K2HPO4, 3.3 KH2PO4, 1.2 MgCl2, 1.2 CaCl2), 10 Glucose, 10 HEPES (pH adjusted to 7.4 with NaOH) and the apical solution contained (in mM) 145 NaGluconate, 1.2 MgCl2, 1.2 CaCl2), 10 glucose, 10 HEPES (pH adjusted to 7.4 with NaOH) and 30 μM amiloride to block the epithelial sodium channel. Forskolin (20 μM) was added to the apical surface to activate CFTR, followed by apical addition of a CFTR inhibitor cocktail consisting of BPO, GlyH-101, and CFTR inhibitor 172 (each at 20 μM final assay concentration) to specifically isolate CFTR currents. The CFTR-mediated ISC (μA/cm^2) for each condition was determined from the peak forskolin response to the steady-state current following inhibition.
2. Identification of Corrector Compounds
The activity of the CFTR corrector compounds on the CFTR-mediated ISC was determined in Ussing chamber studies as described above. The F508del/MF-HBE cell cultures were either incubated with the corrector compounds at a range of concentrations in combination with 1 μM Ivacaftor or were incubated with the corrector compounds at a single fixed concentration of 10 μM in combination with 1 μM Ivacaftor for 18-24 hours at 37° C. and in the presence of 20% human serum. The concentration of corrector compounds with 1 μM Ivacaftor during the 18-24 hours incubations was kept constant throughout the Ussing chamber measurement of the CFTR-mediated ISC to ensure compounds were present throughout the entire experiment.
Ussing Chamber Assay of CFTR-mediated short-circuit currents
Ussing chamber experiments were performed using human bronchial epithelial (HIBE) cells derived from CF subjects heterozygous for F508del and a minimal function CFTR mutation (F508del/MIF-HIBE) and cultured as previously described (Neuberger T, Burton B, Clark H, Van Goor F Methods Mol Biol 2011:741:39-54). After four days the apical media was removed, and the cells were grown at an air liquid interface for >14 days prior to use.
as §1, with “KH2PO4,” for “K2HPO4,”
Identification of Corrector Compounds

[1] abbreviates: Table 11, at 10 μM, read-out: HBE Activity at 10 μM (%).
Setting [2] is: Table 11, read-out: HBE Max Activity (%).
Where [3] appears, read: Table 10, read-out: HBE Max activity (%).
Where [4] appears, read: HBE assay, read-out: HBE Max activity (%).
[5] abbreviates: HBE assay, 10 μM, read-out: HBE Activity at 10 μM (%).

T1 sequence (P13569 with tags, fused parts or gaps DEL508-508): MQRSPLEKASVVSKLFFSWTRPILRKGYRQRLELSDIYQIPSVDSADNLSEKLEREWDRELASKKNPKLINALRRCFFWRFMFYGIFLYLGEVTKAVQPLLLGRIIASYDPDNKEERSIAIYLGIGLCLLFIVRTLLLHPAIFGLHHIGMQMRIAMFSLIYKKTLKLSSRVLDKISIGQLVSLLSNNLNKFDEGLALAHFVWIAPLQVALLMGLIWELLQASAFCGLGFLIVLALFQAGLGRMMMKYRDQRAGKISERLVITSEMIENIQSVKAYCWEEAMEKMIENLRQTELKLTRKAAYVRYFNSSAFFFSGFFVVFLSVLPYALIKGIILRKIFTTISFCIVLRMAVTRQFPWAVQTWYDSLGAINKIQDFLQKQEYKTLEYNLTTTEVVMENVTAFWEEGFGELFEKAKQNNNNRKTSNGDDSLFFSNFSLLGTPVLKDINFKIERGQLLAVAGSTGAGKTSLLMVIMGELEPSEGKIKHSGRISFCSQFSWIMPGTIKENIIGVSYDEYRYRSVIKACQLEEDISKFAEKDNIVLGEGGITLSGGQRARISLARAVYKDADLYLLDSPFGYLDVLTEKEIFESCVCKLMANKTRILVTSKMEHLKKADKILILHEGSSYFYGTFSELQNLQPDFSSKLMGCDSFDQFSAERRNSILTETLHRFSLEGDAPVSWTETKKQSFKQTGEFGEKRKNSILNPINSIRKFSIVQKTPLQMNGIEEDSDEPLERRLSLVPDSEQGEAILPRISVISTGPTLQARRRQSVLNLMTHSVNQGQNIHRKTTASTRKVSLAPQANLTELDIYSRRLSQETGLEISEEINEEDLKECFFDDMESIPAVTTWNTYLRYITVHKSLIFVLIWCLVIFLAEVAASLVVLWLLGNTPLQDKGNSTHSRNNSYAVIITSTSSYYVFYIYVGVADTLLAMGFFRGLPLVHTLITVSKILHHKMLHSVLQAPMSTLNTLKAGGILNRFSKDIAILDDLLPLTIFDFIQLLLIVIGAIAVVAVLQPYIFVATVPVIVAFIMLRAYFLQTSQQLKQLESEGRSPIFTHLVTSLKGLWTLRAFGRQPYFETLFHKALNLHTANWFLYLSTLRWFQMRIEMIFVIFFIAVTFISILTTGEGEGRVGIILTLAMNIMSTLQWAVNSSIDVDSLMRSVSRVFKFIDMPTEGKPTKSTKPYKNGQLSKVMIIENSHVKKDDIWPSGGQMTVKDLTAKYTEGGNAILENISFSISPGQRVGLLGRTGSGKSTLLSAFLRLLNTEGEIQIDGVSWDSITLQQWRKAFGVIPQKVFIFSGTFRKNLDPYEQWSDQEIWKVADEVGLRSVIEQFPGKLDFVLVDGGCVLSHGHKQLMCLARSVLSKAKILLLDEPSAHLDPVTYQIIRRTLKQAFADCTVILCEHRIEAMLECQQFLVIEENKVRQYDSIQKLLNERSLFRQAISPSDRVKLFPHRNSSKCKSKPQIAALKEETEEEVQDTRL

As to `Cc1cccc(C)c1-c1cc2nc(n1)NS(=O)(=O)c1cccc(c1)C(=O)N(CC1CCCC(C)(C)O1)[C@H](CC(C)(C)C)CO2` (single isomer, unassigned) [Compound 19], under setting [1], the activation at 10 µM was more than 60%. Regarding `Cc1cccc(C)c1-c1cc2nc(n1)NS(=O)(=O)c1cccc(c1)C(=O)N(CC1CCC(C)(C)CO1)[C@H](CC(C)(C)C)CO2` (single isomer, unassigned) [Compound 22], the EC50 (as a rule, the concentration giving half of the maximal effect) (Table 11, read-out: HBE EC50) is less than 1 µM. The Emax under setting [2] is more than 60%. Consider `Cc1cccc(C)c1-c1cc2nc(n1)NS(=O)(=O)c1cccc(c1)C(=O)N(CC1CCC(C)(C)CO1)[C@H](CC(C)(C)C)CO2` (single isomer, unassigned) [Compound 23], for which the half-maximal effective concentration (EC50) (Table 11, read-out: HBE EC50) is less than 1 µM. On to `Cc1cccc(C)c1-c1cc2nc(n1)NS(=O)(=O)c1cccc(c1)C(=O)N(C[C@H]1CC(C)(C)CCO1)[C@H](CC(C)(C)C)CO2` (single isomer, unassigned) [Compound 24], for which the activation at 10 µM under setting [1] was more than 60%. Same read-out and setting: the same measure for `Cc1cccc(C)c1-c1cc2nc(n1)NS(=O)(=O)c1cccc(c1)C(=O)N(CC1CC(C)(C)CCO1)[C@H](CC(C)(C)C)CO2` (single isomer, unassigned) [Compound 25]: more than 60%; for `Cc1cccc(C)c1-c1cc2nc(n1)NS(=O)(=O)c1cccc(c1)C(=O)N(CC1OCCC1(C)C)[C@H](CC(C)(C)C)CO2` (single isomer, unassigned) [Compound 26]: more than 60%; for `Cc1cccc(C)c1-c1cc2nc(n1)NS(=O)(=O)c1cccc(c1)C(=O)N(CC1CCOC(C)(C)C1)[C@H](CC(C)(C)C)CO2` (single isomer, unassigned) [Compound 28]: more than 60%. The same measure, in the same setting: to `Cc1cccc(C)c1-c1cc2nc(n1)NS(=O)(=O)c1cccc(c1)C(=O)N(CC1CCC(C)(C)OC1)[C@H](CC(C)(C)C)CO2` (single isomer, unassigned) [Compound 31] belongs more than 60%; to `Cc1cccc(C)c1-c1cc2nc(n1)NS(=O)(=O)c1cccc(c1)C(=O)N(CC1CCC(C)(C)O1)[C@H](CC(C)(C)C)CO2` (single isomer, unassigned) [Compound 33], more than 60%. Consider `Cc1cccc(C)c1-c1cc2nc(n1)NS(=O)(=O)c1cccc(c1)C(=O)N(CC1CCC(C)(C)O1)[C@H](CC(C)(C)C)CO2` (single isomer, unassigned) [Compound 34], for which the EC50 (Table 11, read-out: HBE EC50) is less than 1 µM. Moreover, the Emax under setting [2] was more than 60%. Consider `Cc1cccc(C)c1-c1cc2nc(n1)NS(=O)(=O)c1cccc(c1)C(=O)N(CC1OCCCC1(C)C)[C@H](CC(C)(C)C)CO2` (single isomer, unassigned) [Compound 35], for which the activation at 10 µM under setting [1] was more than 60%. For `Cc1cccc(C)c1-c1cc2nc(n1)NS(=O)(=O)c1cccc(c1)C(=O)N(CC1CC(N3C[C@@H](C)O[C@@H](C)C3)C1)[C@H](CC(C)(C)C)CO2` (single isomer, unassigned) [Compound 63], the EC50 (read-out: HBE EC50, Table 10) is less than 1 µM. `Cc1cccc(C)c1-c1cc2nc(n1)NS(=O)(=O)c1cccc(c1)C(=O)N(CC1CC(N3C[C@@H](C)O[C@@H](C)C3)C1)[C@H](CC(C)(C)C)CO2` (single isomer, unassigned) [Compound 64]: where the note is “HBE EC50 (μM), Table 10”, the EC50 was less than 1 µM. Besides, the Emax (read-out: HBE Max activity (%)) is more than 60%.

In the case of `Cc1cccc(C)c1-c1cc2nc(n1)NS(=O)(=O)c1cccc(c1)C(=O)N(C[C@H]1CC[C@@H](O)CC1)[C@H](CC(C)(C)C)CO2` (single isomer, unassigned) [Compound 151], where the note is “Table 10, read-out: HBE EC50”, the EC50 is less than 1 µM. Also, under setting [3], the Emax is more than 60%. Turning to `Cc1cccc(C)c1-c1cc2nc(n1)NS(=O)(=O)c1cccc(c1)C(=O)N(C[C@H]1CC[C@@H](O)CC1)[C@H](CC(C)(C)C)CO2` (single isomer, unassigned) [Compound 152], under “Table 10, at 10 μM, read-out: HBE activity at 10 (μM) (%)”, the activation at 10 µM is more than 60%. For the molecule `Cc1cccc(C)c1-c1cc2nc(n1)NS(=O)(=O)c1cccc(c1)C(=O)N(CC1CCC(N3CCOCC3)CC1)[C@H](CC(C)(C)C)CO2` (single isomer, unassigned) [Compound 153], the EC50 (Table 10, read-out: HBE EC50) was less than 1 µM. With `Cc1cccc(C)c1-c1cc2nc(n1)NS(=O)(=O)c1cccc(c1)C(=O)N(CC1CCC(N3CCOCC3)CC1)[C@H](CC(C)(C)C)CO2` (single isomer, unassigned) [Compound 154], for the setting “Table 10, read-out: HBE EC50”, the concentration for a half-maximal effect (EC50) was less than 1 µM. In addition, the Emax under setting [3] was more than 60%. As to `Cc1ccc(N2CCCC2C)nc1CN1C(=O)c2cccc(c2)S(=O)(=O)Nc2nc(cc(-c3c(C)cccc3C)n2)OC[C@H]1CC(C)(C)C` (stereo in doubt) [Compound 1346], under “HBE assay, read-out: HBE EC50”, the EC50 is less than 1 µM. Also, under setting [4], the Emax is more than 60%. The matching figures for `Cc1cccc(C)c1-c1cc2nc(n1)NS(=O)(=O)c1cccc(c1)C(=O)N(Cc1cncc(N3CCCC3C)n1)[C@H](CC(C)(C)C)CO2` (stereo in doubt) [Compound 1366]: less than 1 µM and more than 60%. On the same counts, the results for `CCC(C)Oc1cnc(CN2C(=O)c3cccc(c3)S(=O)(=O)Nc3nc(cc(-c4c(C)cccc4C)n3)OC[C@H]2CC(C)C)nc1` (stereo in doubt) [Compound 1395] are less than 1 µM and more than 60%.

As for `Cc1cccc(C)c1-c1cc2nc(n1)NS(=O)(=O)c1cccc(c1)C(=O)N(Cc1cccc(N3CCOC[C@@H]3C)n1)[C@H](CC(C)(C)C)CO2` (stereo in doubt) [Compound 1400], the concentration for a half-maximal effect (EC50) (HBE assay, read-out: HBE EC50) was less than 1 µM. Further, the Emax under setting [4] was more than 60%. On the same counts, the results for `Cc1cccc(C)c1-c1cc2nc(n1)NS(=O)(=O)c1cccc(c1)C(=O)N(Cc1cccc(N3[C@H](C)CC[C@@H]3C)n1)[C@H](CC(C)(C)C)CO2` (stereo in doubt) [Compound 1401] are less than 1 µM and more than 60%. Regarding `Cc1cccc(C)c1-c1cc2nc(n1)NS(=O)(=O)c1cccc(c1)C(=O)N(Cc1ncc(N3CC[C@H]3C)cn1)[C@H](CC(C)(C)C)CO2` (stereo in doubt) [Compound 1406], the EC50 (HBE assay, read-out: HBE EC50) is less than 1 µM.

Take `Cc1cccc(C)c1-c1cc2nc(n1)NS(=O)(=O)c1cccc(c1)C(=O)N(Cc1cccc(N3CCC[C@@H]3CC(C)C)n1)[C@H](CC(C)(C)C)CO2` (stereo in doubt) [Compound 1429]: the EC50 (HBE assay, read-out: HBE EC50) was less than 1 µM. For `CCC1(CO)CCCN1c1cccc(CN2C(=O)c3cccc(c3)S(=O)(=O)Nc3nc(cc(-c4c(C)cccc4C)n3)OC[C@H]2CC(C)(C)C)n1` (stereo in doubt) [Compound 1458], under setting [5], the activation at 10 µM was more than 60%. Still for that read-out and setting: the same measure for `CC[C@@]1(CO)CCCN1c1cccc(CN2C(=O)c3cccc(c3)S(=O)(=O)Nc3nc(cc(-c4c(C)cccc4C)n3)OC[C@H]2CC(C)(C)C)n1` (stereo in doubt) [Compound 1459]: more than 60%.

On to `CO[C@H]1C[C@@H](Oc2cnc(CN3C(=O)c4cccc(c4)S(=O)(=O)Nc4nc(cc(-c5c(C)cccc5C)n4)OC[C@H]3CC(C)C)nc2)C1` (stereo in doubt) [Compound 1462], for which, for the setting “HBE assay, read-out: HBE EC50”, the concentration for a half-maximal effect (EC50) was less than 1 µM. Same read-out and setting: the same measure for `Cc1cccc(C)c1-c1cc2nc(n1)NS(=O)(=O)c1cccc(c1)C(=O)N(Cc1ccnc(N3CCC[C@H]3C(C)C)n1)[C@H](CC(C)(C)C)CO2` (stereo in doubt) [Compound 1476]: less than 1 µM.
